Tested on: SEM cells
Assay: cell viability relative to DMSO control; higher = less cytotoxic
Conditions: 48 h
Procedure, shortened: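 Viability, reported as a per-plate percentage of DMSO wells with cell-free wells as background, came from CellTiter-Glo One luminescence. Reading took place after 48 h at 37°C. Before that, NOMO1 or SEM (500 cells/well) or P12-Ichikawa (1000 cells/well) leukemia cells, adapted for at least four passages in each medium, were seeded in 1536-well plates (5 μl) and pin-dosed with library compounds in DMSO, 47 μM to 0.79 nM over 11 threefold points.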

[1] = HPLM + 10% dialyzed FBS, 0.000781 µM
[2] = HPLM + 10% dialyzed FBS, 0.00234 µM
[3] = HPLM + 10% dialyzed FBS, 0.00702 µM
[4] = HPLM + 10% dialyzed FBS, 0.0211 µM
[5] = HPLM + 10% dialyzed FBS, 0.0632 µM
[6] = HPLM + 10% dialyzed FBS, 0.19 µM
[7] = HPLM + 10% dialyzed FBS, 0.569 µM
[8] = HPLM + 10% dialyzed FBS, 1.71 µM
[9] = HPLM + 10% dialyzed FBS, 5.12 µM
[10] = HPLM + 10% dialyzed FBS, 15.4 µM
[11] = HPLM + 10% dialyzed FBS, 46.1 µM
[12] = RPMI 5 mM glucose + 10% FBS, 0.000781 µM
[13] = RPMI 5 mM glucose + 10% FBS, 0.00234 µM
[14] = RPMI 5 mM glucose + 10% FBS, 0.00702 µM
[15] = RPMI 5 mM glucose + 10% FBS, 0.0211 µM
[16] = RPMI 5 mM glucose + 10% FBS, 0.0632 µM
[17] = RPMI 5 mM glucose + 10% FBS, 0.19 µM
[18] = RPMI 5 mM glucose + 10% FBS, 0.569 µM
[19] = RPMI 5 mM glucose + 10% FBS, 1.71 µM
[20] = RPMI 5 mM glucose + 10% FBS, 5.12 µM
[21] = RPMI 5 mM glucose + 10% FBS, 15.4 µM
[22] = RPMI 5 mM glucose + 10% FBS, 46.1 µM
[23] = RPMI 5 mM glucose + 10% dialyzed FBS, 0.000781 µM
[24] = RPMI 5 mM glucose + 10% dialyzed FBS, 0.00234 µM
[25] = RPMI 5 mM glucose + 10% dialyzed FBS, 0.00702 µM
[26] = RPMI 5 mM glucose + 10% dialyzed FBS, 0.0211 µM
[27] = RPMI 5 mM glucose + 10% dialyzed FBS, 0.0632 µM
[28] = RPMI 5 mM glucose + 10% dialyzed FBS, 0.19 µM
[29] = RPMI 5 mM glucose + 10% dialyzed FBS, 0.569 µM
[30] = RPMI 5 mM glucose + 10% dialyzed FBS, 1.71 µM
[31] = RPMI 5 mM glucose + 10% dialyzed FBS, 5.12 µM
[32] = RPMI 5 mM glucose + 10% dialyzed FBS, 15.4 µM
[33] = RPMI 5 mM glucose + 10% dialyzed FBS, 46.1 µM

SMILES	cell viability [1] [%]	cell viability [2] [%]	cell viability [3] [%]	cell viability [4] [%]	cell viability [5] [%]	cell viability [6] [%]	cell viability [7] [%]	cell viability [8] [%]	cell viability [9] [%]	cell viability [10] [%]	cell viability [11] [%]	cell viability [12] [%]	cell viability [13] [%]	cell viability [14] [%]	cell viability [15] [%]	cell viability [16] [%]	cell viability [17] [%]	cell viability [18] [%]	cell viability [19] [%]	cell viability [20] [%]	cell viability [21] [%]	cell viability [22] [%]	cell viability [23] [%]	cell viability [24] [%]	cell viability [25] [%]	cell viability [26] [%]	cell viability [27] [%]	cell viability [28] [%]	cell viability [29] [%]	cell viability [30] [%]	cell viability [31] [%]	cell viability [32] [%]	cell viability [33] [%]
Cn1cc(/C=C2\C(=O)Nc3cccnc32)c2ccccc21	90.8	104	113	117	125	121	115	111	112	44.8	30	92.5	92.5	122	114	99.3	105	108	115	98.4	31.8	21.9	105	106	124	101	122	119	114	119	91.7	30.2	28
CCCCC(C=O)NC(=O)C(CC(C)C)NC(=O)OCc1ccccc1 (centres undefined)	93.8	99.8	90.6	105	98.5	58	99.1	102	92.1	81.1	57	110	87.2	94.2	102	110	88.7	91.8	90.9	84.3	85.1	52.6	93.8	82.8	78.1	89.1	86.2	66.2	96.7	94.5	84.8	71.1	47.9
Cc1[nH]c(/C=C2\C(=O)Nc3ccccc32)c(C)c1CCC(=O)O	55	85.6	76.3	81.6	68.9	84	6.38	32.1	26.4	26.5	18.7	71.9	97.7	108	82.6	82.4	86.9	6.07	37.1	39.1	30.9	18.3	47.4	82	80.5	76.1	75.5	83.3	5.75	26.5	27.6	22	15.4
Cc1cc(Nc2nc(N[C@@H](C)c3ccc(F)cc3)c(C#N)cc2F)n[nH]1	120	106	114	110	101	95	99.1	88.7	23.4	15	7.41	112	104	111	112	107	112	103	93.4	24.1	13.3	6.68	104	100	106	105	93.9	101	100	76.9	23.9	16.7	6.42
CN1\C(=C(\O)C2=C(C=CC=C2)[S+]1([O-])=O)C(=O)NC3=CC=CC=N3	92.2	81.9	96.9	75	91.9	114	7.98	67.2	112	63.3	64.9	90	95	97.8	107	106	117	6.64	54.8	93.2	54.9	56.6	98.4	86.6	112	107	123	109	8.39	51.8	96.6	59.8	74.5
CC[C@@]1(O)C(=O)OCC/2=C1/C=C3\N(CC4=CC5=CC(=CC=C5N=C34)O)C2=O	120	128	120	104	58.8	20.9	18.9	8.26	7.73	6.07	5.91	79.1	81.5	73	70.2	22.6	11.6	9.45	6.47	5.43	3.87	4.1	99.6	112	114	93.1	43	17.9	13	7.18	6.51	6.28	4.96
O=C(Nc1ncc(-c2cc(C(F)F)nn2-c2c(Cl)cccc2Cl)s1)C1CC1	101	113	102	128	121	124	118	47	20.5	21.9	8.41	112	106	123	131	127	137	124	31.5	14.8	14.8	4.67	115	103	99.9	137	127	123	130	37.2	17.8	22	5.55
CN1C(=O)C[C@H](C(=O)N[C@@H](Cc2cnc[nH]2)C(=O)N2CCC[C@H]2C(N)=O)NC1=O	117	108	142	121	111	127	122	120	116	97.4	74.3	–	–	–	–	–	–	–	–	–	–	–	104	118	120	122	105	112	104	103	104	98.1	50.1
O=C(c1ccc(F)c(F)c1Nc1ccc(I)cc1F)N1CC(O)([C@@H]2CCCCN2)C1	75.2	92.2	98.2	99.8	85.4	83.6	105	97	69.2	71.4	60.8	98.8	88.6	100	104	98.1	100	92.5	99.1	77.8	71.6	55.1	82.8	96.3	97.4	111	104	96.6	86.2	92.7	68.5	76.9	60.1
CN[C@@H]1Cc2cccc3[nH]c(=O)n(c23)C1	108	119	105	121	98.8	100	110	103	104	92.8	95.4	–	–	–	–	–	–	–	–	–	–	–	–	–	–	–	–	–	–	–	–	–	–
COCCOc1nc(-c2ccc(Cl)c(Cl)c2)n(-c2ccc(NC(=O)CCl)cc2)n1	85.5	95.4	87.5	103	104	103	94.2	97.6	83.6	83.1	84.6	80	106	98.5	89.9	102	85.7	95.4	88	83.4	79.1	80.6	92.2	91.4	96.4	91	95.1	102	94.2	81.6	80.2	80.2	85.1
CN(C)CCOc1ccc(-c2nc(-c3ccncc3)c(-c3ccc4c(c3)CC/C4=N\O)[nH]2)cc1	108	111	106	106	110	101	114	117	112	109	24.8	107	104	106	124	123	113	126	114	122	109	19.6	115	109	111	113	113	119	125	134	119	115	68.5
CC(/C=C/C(=O)NO)=C\[C@@H](C)C(=O)c1ccc(N(C)C)cc1	108	126	109	100	111	101	59	8.01	3.01	2.86	2.07	112	117	115	97.7	115	115	66.2	5.17	3.1	2.52	1.53	102	112	116	105	106	102	56.2	8.19	3.94	3.72	1.86
COc1ccc([C@@H]2CC(=O)c3c(O)cc(O[C@@H]4O[C@H](CO[C@@H]5O[C@@H](C)[C@H](O)[C@@H](O)[C@H]5O)[C@@H](O)[C@H](O)[C@H]4O)cc3O2)cc1O	99.2	101	93.9	93.2	113	48	110	116	125	108	123	105	86.6	98.4	93.4	112	58.5	107	91.3	107	113	120	112	107	106	114	110	54.7	127	114	132	137	119
NC(=O)C1CCCc2c1[nH]c1ccc(Cl)cc21 (centres undefined)	115	120	129	125	119	141	126	64.8	27.4	3.88	1.72	119	122	134	133	126	118	140	115	63.3	5.97	1.78	109	107	109	108	111	126	108	76.8	47.4	6.13	2.95
Cc1cnc(C(=O)O)c[n+]1[O-]	–	–	–	–	–	–	–	–	–	–	–	77.1	88.9	81	87	85.7	92.1	101	87.3	99.5	87.8	72.6	121	118	92.7	112	135	126	133	128	120	114	99.3
